Source: patent publication US20240390383A1, “DIOXAZINES AND THEIR USE IN TREATMENT OF GBA-RELATED DISEASES” (ZEVRA DENMARK A/S, priority 2021, published 2024)
“And” between values parts separate entries of the source, which are not always exact repeats. Identical values can stand only once.

Biological target: T1, GCase (GBA) in human fibroblast cell line GM10915 harboring the L444P GBA mutation (Homo sapiens, UniProt P04062, L483P)
T1 construct: Human fibroblast cell line GM10915 harboring the L444P GBA mutation; host or cells: GM10915 human fibroblasts
T1 sequence (P04062 40-536 L483P): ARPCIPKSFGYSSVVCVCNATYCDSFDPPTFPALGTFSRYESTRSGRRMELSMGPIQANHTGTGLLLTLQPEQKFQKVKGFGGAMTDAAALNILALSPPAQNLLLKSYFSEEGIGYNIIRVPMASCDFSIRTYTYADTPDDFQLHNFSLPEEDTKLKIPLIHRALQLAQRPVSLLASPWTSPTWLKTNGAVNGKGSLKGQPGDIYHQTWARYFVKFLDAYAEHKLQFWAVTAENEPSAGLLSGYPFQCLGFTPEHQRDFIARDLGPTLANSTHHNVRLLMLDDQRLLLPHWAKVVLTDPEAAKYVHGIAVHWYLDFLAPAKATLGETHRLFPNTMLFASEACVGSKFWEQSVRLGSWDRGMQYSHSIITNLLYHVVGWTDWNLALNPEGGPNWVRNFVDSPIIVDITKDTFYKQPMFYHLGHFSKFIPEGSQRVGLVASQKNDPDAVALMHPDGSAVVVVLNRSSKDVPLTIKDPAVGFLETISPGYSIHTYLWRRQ
Experiment: GCase activity assay (4-MUG substrate, normalised to crystal violet staining) in L444P GBA fibroblasts
Type: cell-based
Details: 5 days exposure; for GBA EC1.5: concentration giving 150% GCase activity (1.5-fold induction), 8-point dose range
Method: Human fibroblast cell line GM10915 harboring the L444P GBA mutation was obtained from Coriell Biorepositories.
All chemicals (Glacial acetic acid, Glycine, 4-Methylumbelliferyl b-D-glucopyranoside (4-MUG), Sodium acetate trihydrate, Sodium hydroxide, Crystal violet, SDS, Ammonium hydroxide) were obtained from Sigma-Aldrich (Denmark) Compounds tested for GCase activity were dissolved in H2O or DMSO.
The GM10915 cell line was cultured under standard cell culture conditions (37° C. and 5% CO2) in complete DMEM medium supplemented with nonessential amino acids (NEAA), 1% Pen-Strep and 12% FCS. Cells were seeded at a density of 10^4 cells/well in 100 μL complete medium in one black 96-well plate for glucosylceramidase (GCase) activity measurement and in one clear 96-well plate for crystal violet staining to correct for cell density. Crystal violet staining is performed to obtain quantitative information about the relative density of cells adhering to multi-wells plates.
The assay was adapted from Sawkar et al (2002) and briefly described in the following. The day after seeding of cells, the medium was replaced with fresh medium containing the compounds to be tested. Compounds were tested in duplicate and in an 8-point diluted dose range to obtain a dose response. Cells were exposed with compounds for five days. Fresh compound was added every 2-3 days. PBS was included to define the basal level of GCase activity.
Cells were washed three times with 200 μL PBS per well and 50 μL of 2.5 mM 4-MUG buffer (4-MUG dissolved in 0.2 M acetate buffer pH 4.0) was added and the cells were incubated at 37° C., 5% CO2 for 23 hours. The reaction was stopped by adding 150 μL 0.2 M glycine buffer (pH 10.8). Fluorescence was measured with a Varioskan® Flash reader (Thermo Scientific) at an excitation/emission setting of 365/445 nm.
Cells were treated with compounds in a parallel setup identical to the setup to test for GCase activity. At the end of compound treatment, cells were washed once with 200 μL PBS per well and 50 μL 0.1% w/v crystal violet (in H2O) was added. Following 10 min. of incubation, the crystal violet solution was removed, and the cells were washed three times with 200 μL PBS and 100 μL 1% SDS was added to solubilize the stain. The plate was agitated on an orbital shaker for 10-30 min. Absorbance (A) is measured at […] using a Varioskan® Flash reader (Thermo Scientific).
The fluorescence signal (F) derived from the GCase measurement is normalized to the absorbance signal (A) derived from the crystal violet staining. The percent GCase activity resulting from compound treatment is calculated relative to the basal activity obtained from untreated cells.
Maximal effect of compounds (Emax) is determined from the dose response effects as the maximum “Percent GCase activity” achieved in the dose range tested.

[1] = maximum percent GCase activity relative to untreated cells in the dose range tested

| GBA EC1.5 | Emax [1] [%] | GBA Emax [1] [%] | Structure (SMILES) |
| --- | --- | --- | --- |
| 21 µM | 225 | – | COCCC1(C2=NOCC(CN3CCCCC3)O2)CCN(C)C1 (racemic) [compound 701, rac-3-(3-(2-methoxyethyl)-1-methylpyrrolidin-3-yl)-5-(piperidin-1-ylmethyl)-5,6-dihydro-1,4,2-dioxazine] |
| 5 µM | 180 | – | CC1(C)CC(C2=NOCC(CN3CCCCC3)O2)CCN1 (racemic) [compound 705, rac-3-(2,2-dimethyl-4-piperidyl)-5-(1-piperidylmethyl)-5,6-dihydro-1,4,2-dioxazine] |
| 6 µM | 180 | – | CC(C)C1ON=C(C2CCNCC2)OC1CN1CCCCC1 (racemic) [compound 706, rac-6-isopropyl-5-(piperidin-1-ylmethyl)-3-(piperidin-4-yl)-5,6-dihydro-1,4,2-dioxazine] |
| 4 µM and 2 µM | 249 | 230 | CC(C)C1ON=C(C2CCN(C)C2)OC1CN1CCCCC1 (racemic) [compound 707, rac-6-isopropyl-3-(1-methylpyrrolidin-3-yl)-5-(piperidin-1-ylmethyl)-5,6-dihydro-1,4,2-dioxazine] |
| 22 µM | 178 | – | CC(C)N1CCCC(C2=NOCC(CN3CCCCC3)O2)C1 (racemic) [compound 709, rac-3-(1-isopropylpiperidin-3-yl)-5-(piperidin-1-ylmethyl)-5,6-dihydro-1,4,2-dioxazine] |
| 28 µM | 234 | – | CN(C)C(=O)CN1CCCC(C2=NOCC(CN3CCCCC3)O2)C1 (racemic) [compound 710, rac-N,N-dimethyl-2-(3-(5-(piperidin-1-ylmethyl)-5,6-dihydro-1,4,2-dioxazin-3-yl)piperidin-1-yl)acetamide] |
| 38 µM | 198 | – | NC(=O)CN1CCCC(C2=NOCC(CN3CCCCC3)O2)C1 (racemic) [compound 711, rac-2-(3-(5-(piperidin-1-ylmethyl)-5,6-dihydro-1,4,2-dioxazin-3-yl)piperidin-1-yl)acetamide] |
| 28 µM | 212 | – | CC(C)C1ON=C(C2CCNC2)OC1CN(C)C (racemic) [compound 713, rac-1-(6-isopropyl-3-(pyrrolidin-3-yl)-5,6-dihydro-1,4,2-dioxazin-5-yl)-N,N-dimethylmethanamine] |
| 16 µM | 213 | – | COC1CN(C(C)C)CCC1C1=NOCC(CN2CCCCC2)O1 (racemic) [compound 714, rac-3-(1-isopropyl-3-methoxypiperidin-4-yl)-5-(piperidin-1-ylmethyl)-5,6-dihydro-1,4,2-dioxazine] |
| 10 µM | 242 | – | CC(C)N1CCC(C2=NOCC(CN3CCCCC3)O2)CC1 (racemic) [compound 719, rac-3-(1-isopropylpiperidin-4-yl)-5-(piperidin-1-ylmethyl)-5,6-dihydro-1,4,2-dioxazine] |
| 11 µM | 346 | – | COC1CN(C)CCC1C1=NOCC(CN2CCCCC2)O1 (racemic) [compound 720, rac-3-(3-methoxy-1-methylpiperidin-4-yl)-5-(piperidin-1-ylmethyl)-5,6-dihydro-1,4,2-dioxazine] |
| 33 µM | 175 | – | CNC(=O)CN1CCCC(C2=NOCC(CN3CCCCC3)O2)C1 (racemic) [compound 721, rac-N-methyl-2-(3-(5-(piperidin-1-ylmethyl)-5,6-dihydro-1,4,2-dioxazin-3-yl)piperidin-1-yl)acetamide] |
| 26 µM | 153 | – | OCC1(C2=NOCC(CN3CCCCC3)O2)CCNCC1 (racemic) [compound 722, rac-(4-(5-(piperidin-1-ylmethyl)-5,6-dihydro-1,4,2-dioxazin-3-yl)piperidin-4-yl)methanol] |
| 36 µM | 168 | – | NCC(=O)N1CCCC(C2=NOCC(CN3CCCCC3)O2)C1 (racemic) [compound 725, rac-2-amino-1-(3-(5-(piperidin-1-ylmethyl)-5,6-dihydro-1,4,2-dioxazin-3-yl)piperidin-1-yl)ethan-1-one] |
| 8 µM | 269 | – | COCCC1(C2=NOCC(CN3CCCCC3)O2)CCNCC1 (racemic) [compound 726, rac-3-(4-(2-methoxyethyl)piperidin-4-yl)-5-(piperidin-1-ylmethyl)-5,6-dihydro-1,4,2-dioxazine] |
| 16 µM | 283 | – | CC(N)C(=O)N1CCC(C2=NOCC(CN3CCCCC3)O2)CC1 (racemic) [compound 748, rac-2-amino-1-(4-(5-(piperidin-1-ylmethyl)-5,6-dihydro-1,4,2-dioxazin-3-yl)piperidin-1-yl)propan-1-one] |
| 39 µM | 121 | – | CNC1CNCC(C2=NOCC(CN3CCCCC3)O2)C1 (racemic) [compound 756, rac-N-methyl-5-(5-(piperidin-1-ylmethyl)-5,6-dihydro-1,4,2-dioxazin-3-yl)piperidin-3-amine] |
| 38 µM | 136 | – | CN(C)[C@H]1CNC[C@H]1C1=NOCC(CN2CCCCC2)O1 (mixture of isomers) [compound 766, rac-rel-cis-(3R,4R)—N,N-dimethyl-4-(5-(piperidin-1-ylmethyl)-5,6-dihydro-1,4,2-dioxazin-3-yl)pyrrolidin-3-amine] |
| 6 µM | 238 | – | CN(C)CCCC1=NOCC(CN2CCCCC2)O1 (racemic) [compound 768, rac-N,N-dimethyl-3-(5-(piperidin-1-ylmethyl)-5,6-dihydro-1,4,2-dioxazin-3-yl)propan-1-amine] |
| 9 µM | 265 | – | CN1CCC(C2=NOCC(CN3CCCCC3)O2)CC1 (racemic) [compound 770, rac-3-(1-methylpiperidin-4-yl)-5-(piperidin-1-ylmethyl)-5,6-dihydro-1,4,2-dioxazine] |
| 11 µM | 259 | – | CN(C)CCC1=NOCC(CN2CCCCC2)O1 (racemic) [compound 779, rac-N,N-dimethyl-2-(5-(piperidin-1-ylmethyl)-5,6-dihydro-1,4,2-dioxazin-3-yl)ethan-1-amine] |
| 42 µM | 193 | – | NCC(=O)N1CCC(C2=NOCC(CN3CCCCC3)O2)CC1 (racemic) [compound 787, rac-2-amino-1-(4-(5-(piperidin-1-ylmethyl)-5,6-dihydro-1,4,2-dioxazin-3-yl)piperidin-1-yl)ethan-1-one] |
| 46 µM | 149 | – | c1cncc(CNCCC2=NOCC(CN3CCCCC3)O2)c1 (racemic) [compound 797, rac-2-(5-(piperidin-1-ylmethyl)-5,6-dihydro-1,4,2-dioxazin-3-yl)-N-(pyridin-3-ylmethyl)ethan-1-amine] |
| 40 µM | 183 | – | COc1cncc(CNCCC2=NOCC(CN3CCCCC3)O2)c1 (racemic) [compound 806, rac-N-((5-methoxypyridin-3-yl)methyl)-2-(5-(piperidin-1-ylmethyl)-5,6-dihydro-1,4,2-dioxazin-3-yl)ethan-1-amine] |
| 4 µM | 181 | – | C1CCN(CCC2=NOCC(CN3CCCCC3)O2)CC1 (racemic) [compound 816, rac-3-(2-(piperidin-1-yl)ethyl)-5-(piperidin-1-ylmethyl)-5,6-dihydro-1,4,2-dioxazine] |
